# pIC50: −log10 of the molar value. Like-named read-outs stand apart in the source and are kept apart here.
# Key:
# [1] = assay type: physicochemical; settings: for Conversion (%) / Notes (stability): 0.5 mM
# Experimental: The hydrolysis kinetics was under a certain temperature and measured by LCMS at a certain time interval. The corresponding LCMS chromatograms were recorded and the conversions were calculated. The hydrolysis conditions and the data were summarized in below table. LCMS spectra were obtained using Agilent 1200\G1956A or SHIMADZU LCMS-2020. Standard LCMS conditions were as follows (running time 1.55 minutes):
# Acidic condition: Mobile Phase A: 0.0375% TFA in water (v/v). Mobile Phase B: 0.01875% TFA in acetonitrile (v/v); Column: Kinetex EVO C18 30*2.1 mm, 5 μm.
# Basic condition: Mobile Phase A: 0.025% NH3·H2O in water (v/v). Mobile Phase B: Acetonitrile; Column: Kinetex EVO C18 2.1×30 mm, 5 μm.
# Conversion (%)=peak area 1/(peak area 1+peak area 2)*100%, peak area 1 is the integration of hydrolyzed product, peak area 2 is the integration of starting material.
# SERT = biological target: T1, SERT (Homo sapiens, UniProt P31645); experiment: SERT inhibition, Neurotransmitter Transportation Fluorescence assay; assay type: cell-based; settings: 30 minutes at 37° C.
# T1 construct: expressed in transfected cells
# Experimental: SERT inhibition was measured using a Neruotransmitter Transportation Fluorescence assay. […] Compounds were prepared by in assay buffer (20 mM HEPES, 0.1% BSA). The compounds were added to the plated cells and incubated for 30 minutes at 37° C. 25 μL of dye solution (Molecular Devices Neurotransmitter Transporter Uptake Assay Kit) was added per well and incubated for 30 minutes at 37° C. The plates were then read on a plate reader.
# [2] = Pharmacokinetics of 047 and 016 after single oral 047 in mice; settings: analyte after single PO 047 75 mg/kg, male C57BL/6 mice
# Experimental: Total twelve male mice were used in this study. Animals were administered through oral route with solution formulation of 047 at 75 mg/kg dose. The formulation vehicle used was normal saline. Blood samples (approximately 60 μL) were collected under light isoflurane anesthesia from a set of two mice at 0.25, 0.5, 1, 2, 4 and 8 h. The blood samples were collected at each time point in labeled micro centrifuge tube containing K2EDTA as anticoagulant and PMSF (100 mM; 10 μL/mL of blood) as a stabilizer. Plasma samples were separated by centrifugation of whole blood and stored below −70° C. until bioanalysis. Following blood collection, immediately animals were sacrificed followed by abdominal vena-cava was cut open and whole body was perfused from heart using 10 mL of normal saline. Brain samples were collected from set of two mice at 0.25, 0.5, 1, 2, 4 and 8 h. After isolation, brain samples were rinsed three times in ice cold normal saline (for 5-10 seconds/rinse using ˜10-20 mL normal saline in disposable petri dish for each rinse) and dried on blotting paper. Brain samples were homogenized using ice-cold phosphate buffer saline (pH-7.4) and PMSF (100 mM; 10 μL/mL of blood) as a stabilizer. Brain homogenates were stored below −70±10° C. until analysis. Total homogenate volume was three times of the brain weight.
# Plasma and brain samples were quantified by fit-for-purpose LC-MS/MS method.
# [3] = pH = 2.0, 25° C., 0.01M HCl, 0-24 h
# [4] = pH = 2.0, 37° C., 0.01M HCl, 0-24 h
# [5] = pH = 7.4, 25° C., PBS (20 mM), 0-24 h
# T1 sequence (P31645 whole entry, species assumed): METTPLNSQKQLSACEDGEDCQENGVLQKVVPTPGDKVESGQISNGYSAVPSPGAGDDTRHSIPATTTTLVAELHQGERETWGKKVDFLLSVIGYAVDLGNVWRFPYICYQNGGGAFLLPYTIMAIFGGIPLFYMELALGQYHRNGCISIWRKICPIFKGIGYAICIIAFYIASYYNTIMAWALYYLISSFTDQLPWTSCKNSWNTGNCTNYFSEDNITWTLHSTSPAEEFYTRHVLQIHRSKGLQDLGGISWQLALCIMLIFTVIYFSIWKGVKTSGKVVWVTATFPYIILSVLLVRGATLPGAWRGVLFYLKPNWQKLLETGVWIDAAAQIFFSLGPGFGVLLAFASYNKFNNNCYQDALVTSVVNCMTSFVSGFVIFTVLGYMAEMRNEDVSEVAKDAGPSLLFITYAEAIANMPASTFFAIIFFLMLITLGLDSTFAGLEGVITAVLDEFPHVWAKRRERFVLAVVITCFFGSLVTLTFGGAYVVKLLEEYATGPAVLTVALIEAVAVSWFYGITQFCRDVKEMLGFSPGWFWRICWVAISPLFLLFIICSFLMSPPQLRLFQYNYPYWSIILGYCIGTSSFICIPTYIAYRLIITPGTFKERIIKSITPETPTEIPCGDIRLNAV
structure (smiles),measurement,setting,value
"COc1ccc([C@@]23C=CC4(C[C@@H]2N(C)CC3)SCCS4)cc1OC (stereo in doubt) [Compound 017, 3′a-(3,4-dimethoxyphenyl)-1′-methyl-spiro[1,3-dithiolane-2,6′-2,3,7,7a-tetrahydroindole]]",Conversion (%),[1]; [3],0%
same,Notes (stability),[1]; [3],Stable
same,Conversion (%),[1]; [4],0%
same,Notes (stability),[1]; [4],Stable
"COc1ccc([C@@]23C=CC4(C[C@@H]2N(C)CC3)SCCS4)cc1OC [Compound 049, (3′aR,7′aS)-3′a-(3,4-dimethoxyphenyl)-1′-methyl-spiro[1,3-dithiolane-2,6′-2,3,7,7a-tetrahydroindole]]",pIC50,SERT,6.80
"COc1ccc(C23C=CC(=O)CC2N(C)CC3)cc1OC (racemic) [Compound 016, 3a-(3,4-dimethoxyphenyl)-1-methyl-2,3,7,7a-tetrahydroindol-6-one, reference compound]",further hydrolysis (in words),"[1]; pH 2.0 in 0.01 M HCl to pH 7.4 in 20 mM PBS, 25° C. to 40° C.",did not further hydrolyze
same,Conversion (%),[1]; [5],0%
same,Notes (stability),[1]; [5],Stable
same,Brain concentrations quantifiable up to,[2],up to 4 h
"COc1ccc([C@@]23C=CC4(C[C@@H]2N(C)CC3)OCCO4)cc1OC [Compound 047, (3′aR,7′aS)-3′a-(3,4-dimethoxyphenyl)-1′-methyl-spiro[1,3-dioxolane-2,6′-2,3,7,7a-tetrahydroindole]]",pIC50,SERT,6.24
same,Brain concentrations quantifiable up to,[2],up to 4 h
"COc1ccc(C23C=CC4(CC2N(C)CC3)OCCO4)cc1OC (stereo not drawn) [Compound 015, (3′aR,7′aS)-3′a-(3,4-dimethoxyphenyl)-1′-methyl-spiro[1,3-dioxolane-2,6′-2,3,7,7a-tetrahydroindole]]",conversion to mesembrenone (in words),[1]; pH 2,converted to mesembrenone
"COc1ccc([C@@]23C=CC4(C[C@@H]2N(C)CC3)OCCO4)cc1OC [Compound 015, (3′aR,7′aS)-3′a-(3,4-dimethoxyphenyl)-1′-methyl-spiro[1,3-dioxolane-2,6′-2,3,7,7a-tetrahydroindole]]",Conversion (%),"[1]; pH = 2.0, 25° C., 0.01M HCl, 1 min",19%
same,Conversion (%),"[1]; pH = 2.0, 25° C., 0.01M HCl, 10 min",46%
same,Conversion (%),"[1]; pH = 2.0, 25° C., 0.01M HCl, 30 min",66%
same,Conversion (%),"[1]; pH = 2.0, 25° C., 0.01M HCl, 120 min",99%
"COc1ccc([C@]23C=CC4(C[C@H]2N(C)CC3)SCCS4)cc1OC [Compound 050, (3′aS,7′aR)-3′a-(3,4-dimethoxyphenyl)-1′-methyl-spiro[1,3-dithiolane-2,6′-2,3,7,7a-tetrahydroindole]]",pIC50,SERT,6.39
"COc1ccc([C@]23C=CC4(C[C@H]2N(C)CC3)OCCO4)cc1OC [Compound 048, (3′aS,7′aR)-3′a-(3,4-dimethoxyphenyl)-1′-methyl-spiro[1,3-dioxolane-2,6′-2,3,7,7a-tetrahydroindole]]",pIC50,SERT,6.03

# From patent US20260152509A1, “DELIVERY OF THERAPEUTIC ALKALOID COMPOUNDS” (priority 2021, published 2026)
